Assay [1] concerns matrix metalloproteinase-9 (MMP-9). Kind of assay: Inhibition of MMP-9 gene expression/synthesis in platelet-monocyte aggregates adherent to collagen type I. Format: cell-based, Human. Particulars: adhered to collagen type I for 18 hours, 9 independent experiments. The procedure: Inhibition of MMP-9 Gene Expression in Platelet-Monocyte Aggregates by the Dipyridamole Component of Aggrenox® (AGG)
Aggrenox® (AGG) is a fixed dosed combination of extended-release dipyridamole (DIP) and aspirin (ASA). AGG is recommended in the protection of secondary stroke and transient ischemic attacks. It also increases tissue perfusion in patients with stable angina or Raynaud's disease. It was determined if AGG blocked the synthesis of inflammatory genes produced by platelet-monocyte aggregates.
Human platelets and monocytes were pretreated with Dipyridamole (DIP) (5 μg/ml), ASA (625 ng/ml), or a DIP/ASA mixture (AGG); 5 μg/ml: 625 ng/ml, an 8:1 ratio of DIP/ASA). The cells were adhered to collagen type I. Synthesis of matrix metalloproteinase-9 (MMP-9) was determined. […] AGG and DIP reduced MMP-9 expression (53%, 61%, and a 17% reduction in MMP-9 synthesis compared to untreated cells for AGG, DIP, and ASA, respectively; results shown in FIG. 1). The inhibitory actions of AGG on gene expression are due to the DIP component of this |drug|.
FIG. 1: The Dipyridamole component of Aggrenox attenuates MMP-9 synthesis by monocytes (monos) adherent to platelets (pits) and collagen. […] The cells were subsequently adhered to Collagen Type 1 for 18 hours and MMP-9 expression was measured. […]

The conditions of assay [2]: ESPS-2; compared with aspirin; cited from earlier work.

As for `CC(=O)Oc1ccccc1C(=O)O` [ASA, acetylsalicalic acid], the “reduction in MMP-9 synthesis compared to untreated cells” value in assay [1] (human platelets and monocytes pretreated 15 minutes with 625 ng/ml) was 17%.

As to `OCCN(CCO)c1nc(N2CCCCC2)c2nc(N(CCO)CCO)nc(N3CCCCC3)c2n1` [DIP, 2,6-bis(diethanolamino)-4,8-dipiperidino-pyrimido[5,4-d]pyrimidine], in assay [1] (human platelets and monocytes pretreated 15 minutes with 5 μg/ml), the “reduction in MMP-9 synthesis compared to untreated cells” value was found to be 61%. Also, the “reduction of stroke risk” value in assay [2] was “as effective as low-dose aspirin”.
